Like-named read-outs stand apart in the source and are kept apart here.
Columns and labels:
[1] = system: ADP-induced aggregation in rabbit platelet; test: Inhibition effect on ADP-induced aggregation in rabbit platelet; format: cell-based; conditions: Oryctolagus cuniculus, Platelet; for inhibition at 100 µM: concentration of the test compound solution 10^-4 mole
Procedure: (§1) The platelet aggregation inhibitory effect is measured by using AG-II aggregometer (manufactured by Bryston Manufacturing Co.). The blood sample used for the test is a 1/9 (by volume) mixture of sodium citrate and whole blood collected from rabbit. Said sample is subjected to 10-minute centrifugal separation at 1,000 r.p.m. to obtain a platelet rich plasma (PRP). The thus obtained PRP is separated, and the remaining blood sample is further subjected to 15-minute centrifugal separation at 3,000 r.p.m. to obtain a platelet poor plasma (PPP).
(§2) The number of platelets in the PRP is counted by the Brecher-Clonkite Method, and the PRP is diluted with the PPP to prepare a PRP sample with platelet concentration of 300,000/mm^3 for the adenosine diphosphate (ADP)-induced aggregation test. There is also prepared a PRP sample with platelet concentration of 450,000/mm^3 for the collagen-induced aggregation test.
(§3) 0.6 Milliliter of said PRP sample is added into 0.01 ml of a solution of a test compound of a predetermined concentration and the mixture is placed in a 37° C. thermostat for one minute. Then 0.07 ml of an ADP or collagen solution is added to the mixture. Transmittance of this mixture is determined and the change of transmittance is recorded by using the aggregometer at stirrer speed of 1,100 r.p.m. […] The ADP solution is adjusted to a concentration of 7.5×10^-5 M, and the collagen solution is prepared by triturating 100 mg of collagen with 5 ml of said buffer and the supernatant is used as collagen inducer. Acetylsalicylic acid is used as control for the ADP-induced aggregation test and the collagen-induced aggregation test, respectively. The platelet aggregation inhibitory effect is measured in terms of percent inhibition with respect to the aggregation rate of the controls. The aggregation rate is calculated from the following formula:
(§4) Aggregation rate=[(c-a)/(b-a)]×100
(§5) b: transmittance of PRP containing a test compound and an aggregation inducer

[2] = system: collagen-induced aggregation in rabbit platelet; test: Inhibition effect on collagen-induced aggregation in rabbit platelet; format: cell-based; conditions: Oryctolagus cuniculus, Platelet, read-out: Inhibition effect on collagen-induced aggregation
Procedure: as §1, §2, §3, §4, §5

[3] = target: T1, cyclic AMP phosphodiesterase (Oryctolagus cuniculus, UniProt G1ST54); test: Obstructive action against cyclic AMP phosphodiesterase; format: biochemical; conditions: rabbit platelet enzyme, 30° C., 20 minutes
T1 construct: the supernatant was collected to use it as a crude enzyme solution; from tissue; host or cells: rabbit platelets (from platelet-rich plasma)
T1 sequence (G1ST54 1-1128): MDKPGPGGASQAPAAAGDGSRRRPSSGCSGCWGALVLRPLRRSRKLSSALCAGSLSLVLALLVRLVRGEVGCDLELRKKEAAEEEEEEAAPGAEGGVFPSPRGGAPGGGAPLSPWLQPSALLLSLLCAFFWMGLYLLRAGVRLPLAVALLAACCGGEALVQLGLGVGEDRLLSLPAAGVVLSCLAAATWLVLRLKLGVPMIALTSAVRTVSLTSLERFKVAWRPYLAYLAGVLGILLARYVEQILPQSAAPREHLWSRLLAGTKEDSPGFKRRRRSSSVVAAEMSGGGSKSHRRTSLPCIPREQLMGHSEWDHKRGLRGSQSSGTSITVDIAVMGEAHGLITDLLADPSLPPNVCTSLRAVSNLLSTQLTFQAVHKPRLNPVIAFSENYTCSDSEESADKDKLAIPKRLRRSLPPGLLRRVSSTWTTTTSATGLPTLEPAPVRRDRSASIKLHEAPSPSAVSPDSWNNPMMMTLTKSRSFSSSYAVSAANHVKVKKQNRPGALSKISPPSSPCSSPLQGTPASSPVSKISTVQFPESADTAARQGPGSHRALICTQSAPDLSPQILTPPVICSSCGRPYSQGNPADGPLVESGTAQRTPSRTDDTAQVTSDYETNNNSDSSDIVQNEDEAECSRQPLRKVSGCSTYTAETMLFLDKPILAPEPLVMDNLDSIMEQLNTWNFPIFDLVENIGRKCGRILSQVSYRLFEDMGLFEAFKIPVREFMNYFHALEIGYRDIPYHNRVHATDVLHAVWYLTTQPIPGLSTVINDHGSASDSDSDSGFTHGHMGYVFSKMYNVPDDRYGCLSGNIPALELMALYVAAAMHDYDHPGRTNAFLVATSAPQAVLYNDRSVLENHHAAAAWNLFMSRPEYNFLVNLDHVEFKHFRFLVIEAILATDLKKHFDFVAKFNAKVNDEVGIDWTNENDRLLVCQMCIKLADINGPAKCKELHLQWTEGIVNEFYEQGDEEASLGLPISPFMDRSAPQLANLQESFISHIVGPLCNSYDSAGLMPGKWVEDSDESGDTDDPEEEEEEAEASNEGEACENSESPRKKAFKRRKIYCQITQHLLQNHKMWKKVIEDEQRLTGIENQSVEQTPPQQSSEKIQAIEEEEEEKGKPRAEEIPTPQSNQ
Procedure: That is, for determining the obstructive activity against cyclic AMP phosphodiesterase, 10 ml of a solution obtained by adding 1 mmol of MgCl2 into 50 mmol of tris-hydrochloric acid buffer with pH 7.4 was added to the platelets obtained by further centrifuging the above-said rabbit PRP at 3,000 r.p.m. for 10 minutes, and the suspended platelets were ground by a Teflon potter type homogenizer. This was followed by two times of freezing and thawing treatment and 300-second fracturing with 200 watt supersonic waves. After additional 60-minute centrifugation with 100,000 G, the supernatant was collected to use it as a crude enzyme solution.
10 Milliliters of this crude buffer solution was added to a 1.5×20 cm DEAE-cellulose column which has previously been buffered with 50 mM of tris-acetate buffer (pH 6.0), followed by washing and elution with 30 ml of 50 mM tris-acetate buffer, and this buffer solution was subjected to linear gradient elution with 0 to 0.5 moles of sodium acetate-tris-acetatebuffer (total amount of elute was 300 ml.). The flow rate was 0.5 ml/min, and 5 ml of each fraction was batched out. […] This fraction was used as cyclic AMP phosphodiesterase.
0.1 Milliliter of an aqueous solution of each test compound of a specified concentration was mixed with 40 mmol of tris-hydrochloric acid buffer (pH 8.0, containing 50 μg of cow serum albumin and 4 mmol of MgCl2) containing predetermined 1.0 μmol of cyclic AMP (tritium cyclic AMP), and 0.2 ml of this mixed solution was used as substrate solution.
0.2 Milliliter of the above-prepared cyclic AMP phosphodiesterase of a predetermined concentration was added to said substrate solution and the mixture was reacted at 30° C. for 20 minutes, producing tritium 5'-AMP from the tritium cyclic AMP.
The reaction system was then immersed in boiling water for 2 minutes to stop the reaction, and then this reaction solution was cooled in ice water and, for converting the produced tritium 5'-AMP into tritium adenosine, the solution was added with 0.05 ml (1 mg/ml) of snake poison as 5'-nucleotidase and reacted at 30° C. for 10 minutes. The whole amount of this reaction solution was then added to a cation exchange resin (AG 500 W×4, 200-400 meshes, manufactured by Bio-Rad Co., column size: 0.5×1.5 cm), and the produced tritium anodesine alone was allowed to combine, washed with 6 ml of distilled water and eluted with 1.5 ml of 3 N-ammonia water. The whole quantity of the elutant was added with 10 ml of a triton-toluene type scintillator and the produced tritium adenosine was measured by a liquid scintillation counter to determine the phosphodiesterase activity.
In this way, the phosphodiesterase activation value (Vs) of the test compounds of the respective concentrations was determined, and the phosphodiesterase obstruction rate (%) was determined from said activation value (Vs) and control value (Vc) (obtained from water not containing any test compound) from the following formula: [formula] Known 1-methyl-3-isobutylxanthine was used as control.

Acute Toxicity Test = conditions: mouse, in vivo; male mice, oral administration
Procedure: The test compounds were administered orally to the mice and LD50 (mg/kg) of the compounds was determined.

Wistar strain male rats = test: Test of increasing effect of heart rate; format: in vivo, rat; conditions: 30 mg/kg oral, 60 minutes after the administration
Procedure: Wistar strain male rats, having 180-230 g of body weight, were abstained from food for 24 hours, the electrocardiograms introduced from the second induction period were recorded on oscillograph. The heart rate was calculated from the electrocardiograms by observing them for 10 seconds several times. […] 60 Minutes after the administration, the heart rate was measured and increasing effect of the heart rate was calculated. Generally, an average heart rate of an usual Wistar strain male rat is about 320 beat/minute.

[4] = concentration of the test compound solution 10^-5 mole, read-out: Inhibition effect on ADP-induced aggregation
[5] = concentration of the test compound solution 10^-6 mole, read-out: Inhibition effect on ADP-induced aggregation
[6] = concentration of the test compound solution 10^-5 mole
[7] = concentration of the test compound solution 10^-6 mole
[8] = read-out: Inhibition effect on ADP-induced aggregation

With `CN(CC1CCCCO1)C(=O)CCCOc1ccc2[nH]c(=O)ccc2c1` (stereo not drawn) [No. 6, 6-{3-[N-Methyl-N-(2-tetrahydropyranylmethyl)aminocarbonyl]propoxy}carbostyril] the inhibition at 100 µM [1] was 75%, the inhibition at 10 µM [1, 4] was 24.6% and the inhibition at 1 µM [1, 5] was 14.7%. The inhibition at 10 µM [2, 6] was 48.1%, the inhibition at 1 µM [2, 7] was 3.8% and the IC50 [3] was 52 nM. The LD50 (Acute Toxicity Test) was greater than 1000 mg/kg and the “Increasing effect of heart rate” value (Wistar strain male rats) was 40 Beat/min.
Compound `O=C(CCCOc1ccc2[nH]c(=O)ccc2c1)N1CCN(c2ccccc2)CC1` [No. 14, 6-[3-(4-Phenyl-1-piperazinylcarbonyl)propoxy]carbostyril] has an inhibition at 100 µM [1] of 100%, an inhibition at 10 µM [1, 4] of 87.7% and an inhibition at 1 µM [1, 5] of 15.7%. The inhibition at 10 µM [2, 6] was 100%, the inhibition at 1 µM [2, 7] was 31% and the IC50 [3] was 52 nM. For the same compound, the LD50 (Acute Toxicity Test) was greater than 1000 mg/kg and the “Increasing effect of heart rate” value (Wistar strain male rats) was 32 Beat/min.
Work on `CN(C(=O)CCCOc1ccc2[nH]c(=O)ccc2c1)C1CCCCC1` [No. 39, 6-[3-(N--Methyl-N--cyclohexylaminocarbonyl)-propoxy]carbostyril, reference compound] yielded an inhibition at 0.1 µM [1, 8] of 32.8%, an inhibition at 1 µM [1, 8] of 62.1% and an inhibition at 10 µM [1, 8] of 91.7%. For the same compound, the inhibition at 0.1 µM [2] was 57%, the inhibition at 1 µM [2] was 90.2% and the inhibition at 10 µM [2] was 90.5%. For the same compound, the IC50 [3] was 16 nM and the “Increasing effect of heart rate” value (Wistar strain male rats) was 104 Beat/min.
